Point of comparison: `CCCNC(=S)N1CCc2[nH]cnc2C1`, melting point 151 °C. Against it:
- CC1CCCCC1OC(=O)c1cc(NC(=O)c2ccccc2)ccc1Cl (configuration not stated) — lower, 121 to 122 °C
- FC(F)(F)c1cc(-c2cc3ccccc3o2)c2cccc(C(F)(F)F)c2n1 — lower, 129 to 130 °C
- COc1ccc(Cl)c(C)c1OC — lower, 69 to 70 °C
- CCNC(=O)CCCNC(=O)CCCNC(=O)CCCNC(=O)CCCNC(=O)OC(C)(C)C — higher, 196 to 197 °C
- COCCOc1ccc(CCCO)c(Oc2ncc(Cl)cc2Cl)c1 — lower, 83.9 to 84.5 °C
- CCCc1cc(CC(=O)O)ccc1OCc1ccc2ccccc2n1 — lower, 135 °C
- Nc1nc(C(F)(F)F)cc(=O)n1N — higher, 215 to 218 °C
- CCOC(=O)c1c(-c2ccccc2Cl)c2cc(CC)ccc2n(C)c1=O — lower, 125 to 126 °C
- COc1ccc(-c2ccc3[nH]c4c(c3c2)CCN(C(=O)c2ccccc2)CC4)cc1 — lower, 140 to 145 °C
- CC(C)(C)C1CC(=Cc2ccccc2)C(=O)C(=Cc2ccccc2)C1 (configuration not stated) — lower, 137 to 139 °C
- O=C(Nc1ccccn1)C(CC1CCCC1)c1ccc(-c2cccc3ccccc23)cc1 (configuration not stated) — lower, 73 to 77 °C
- CCCCCCc1c(C(F)(F)F)noc1NS(=O)(=O)c1ccccc1 — lower, 128 to 129 °C
- Cc1ccccc1C1CN(C(=O)OC(C)(C)C)CCC1=O (configuration not stated) — lower, 97 to 99 °C
- c1ccc2cc3[nH]c(SCc4nccs4)nc3cc2c1 — higher, 153 to 157 °C
- CN(C(=O)c1ccc2nonc2c1)C1CCOC(O)C1 (configuration not stated) — lower, < 90 °C
- CCOC(=O)CC(=O)c1cc(Cl)ccc1O — lower, 71.8 to 73.1 °C
- CC(C)COC(=O)Oc1c(S(N)(=O)=O)sc2ccccc12 — lower, 129 to 130 °C
- OC(CC1CCN(CC2CC2)CC1)(c1ccccc1)c1ccc(F)cc1 (configuration not stated) — lower, 115 to 116 °C
- O=C1c2ccccc2C(=O)N1CCCSc1ncccn1 — lower, 81.5 to 82.5 °C
- C=CCc1cc2c(C)c(C#N)c(=O)oc2c(C)c1O — higher, 163 to 164 °C
- COc1cc(N2CCC(N3CCN(C)CC3)CC2)ccc1-c1nc2c(N[C@H]3[C@@H](C(N)=O)[C@@H]4C=C[C@H]3C4)ccnc2[nH]1 — higher, 185 to 195 °C
- NC(=O)N1C(=O)C(=C(OC(=O)C=CC(=O)O)c2cccs2)c2cc(F)c(Cl)cc21 — higher, 229 to 232 °C
- Cc1sc(-c2ccccc2)nc1COc1ccc(CCCC(O)C#N)cc1 (configuration not stated) — lower, 101 to 102 °C
- COc1cc(/C=C2/C(C)=C(CC(=O)O)c3cc(F)ccc32)cc(Br)c1OC — higher, 164 °C
- Cc1cc(C)c(Nc2ccnc(Nc3ccc(C#N)cc3)n2)c(C)c1 — higher, 217 to 218 °C
- CCOC(=O)C=Cc1cc(OCc2ccccc2)ccc1-c1ccc(-c2cccnc2)c(C=O)c1 — lower, 126 to 128 °C
- O=C(/C=C/c1ccc(N2CCOCC2)cc1)CC(=O)/C=C/c1ccc2cc[nH]c2c1 — lower, 93 to 97 °C
- CC(=O)OC1CSC(Oc2cncc(-c3ccco3)c2)C(OC(C)=O)C1OC(C)=O (configuration not stated) — higher, 184 °C
- O=C(NC1N=C(c2ccccc2)c2oc3ccccc3c2NC1=O)OCc1ccccc1 (configuration not stated) — higher, > 260 °C
- [N-]=[N+]=Nc1cccc2cccc(O)c12 — lower, 65 to 67 °C
- COC1C(O)C(COC(c2ccccc2)(c2ccccc2)c2ccccc2)OC(Oc2ccc([N+](=O)[O-])cc2)C1O (configuration not stated) — lower, 104 °C
- COc1cccc2c1NCn1cc(CO)cc1-2 — lower, 137 to 138 °C
- O=C(O)c1cccc(-c2nc(-c3cc(Cl)sc3Cl)cs2)c1 — higher, 241 to 242 °C
- CCc1ccc(-c2ccc(CCc3ccc(C)cc3)cc2)c(F)c1 — lower, 65 °C
- Nc1nc2ccccc2c2c1ncn2CCCCNC(=O)[C@@H]1C[C@H]1c1ccccc1 (relative stereo) — lower, 77 °C
- CCOC(=O)c1cc2cc(Oc3ccc(S(C)(=O)=O)cc3)cc(OC)c2[nH]1 — higher, 161 to 162 °C
- Fc1ccccc1-c1ccc2cccnc2n1 — lower, 111 to 114 °C
- CCn1cc(C(=O)O)c(=O)c2cc(Cl)c(N3CCN(c4ccccc4)CC3)cc21 — higher, 234 to 235 °C
- CCCCCCCCNC(=O)[C@@H]1C[C@H]1c1ccc(NC(=O)/C=C\C(=O)O)cc1 (relative stereo) — higher, 178 to 180 °C
- Cc1cc(OCC(O)CNC(C)(C)C)ccc1C=O (configuration not stated) — lower, 82 to 84 °C
- CCCc1c(O)c(C(C)=O)cc(Cl)c1OCCCOc1ccc2ccc(OCC(=O)O)cc2c1C(C)=O — lower, 132 to 134 °C
- CC(C)(C)c1cc(-c2nc(S)sc2-c2ccccc2)cc(C(C)(C)C)c1O — higher, 168 to 171 °C
- O=C(Nc1cccc(S(=O)(=O)CCO)c1)c1cnn2c(C(F)(F)F)cc(-c3ccc(C(F)(F)F)cc3)nc12 — higher, 237 °C
- O=C(CNC(=O)c1nc2ccc(Oc3cccc(C(F)(F)F)c3)cc2cc1OCc1ccccc1)OCc1ccccc1 — lower, 103 to 105 °C
- OC1CCCNC1CN1CCCC1 (configuration not stated) — lower, 45 to 50 °C
- CSc1nnc(C(F)F)s1 — lower, 23 °C
- Cc1cc(=O)n(O)c(C)c1Cc1ccccc1 — higher, 165 °C
- COc1ccc(Nc2ccc(OCc3ccccc3)cc2)cc1 — lower, 108 °C
- CN(C)S(=O)(=O)NC1CCC(CCN2CCN(c3nccc4c3OCC4)CC2)CC1 (configuration not stated) — lower, 128 °C
- O=C(Nc1cccc(OCc2cccnc2)c1)N1CCOCC1 — lower, 58 to 62 °C
- CC(=O)Nc1ccc(OC(C)=O)c2cnsc12 — higher, 215 to 216 °C
- CCC1c2cccn2-c2ccc(Cl)cc2N1C(=O)c1ccc(O)cc1O (configuration not stated) — higher, 198 to 201 °C
- CC(=O)OCn1cc(Cl)c(-c2cc(Cl)cc(Cl)c2)n1 — lower, 95 °C
- O=C(NCCC(=O)N1CCCC1)c1ccc(-c2ccc3nnn(Cc4ccc5ncccc5c4)c3n2)cc1F — not separable, 151 to 153 °C
- CCCCCc1scc2c1n(C(=O)OC)c(=O)n2C(=O)OC — lower, 99 to 102 °C
- CC(=O)OC1=CC=C2CC3N4CCC25C1OC1C(=O)CCC3(OC4)C15 (configuration not stated) — higher, 179 to 182 °C
- CCCN1C(=O)N2C[C@@H](Cc3ccccc3)N=C2c2[nH]c(COCc3ccccc3)nc21 — lower, 130 to 132 °C
- O=C(c1cc(Cl)ccc1O)c1ccccc1F — lower, 76 to 80.5 °C
- Cc1cc2[nH]c(=O)ccc(=O)c2cc1C — higher, 258 °C
- Cc1scc2c1N(C(=O)NCCN1CCC(CCCCN3CCCCC3)CC1)c1ccccc1NC2=O — higher, 186 to 187 °C
- N#CC(C(=O)CF)c1cccc(Cl)c1 (configuration not stated) — lower, 90 to 96 °C
- CCCOCCOc1ccc(Oc2ccc3c(c2)C=C(C(=O)Nc2ccc(CN(C)C4CCOCC4)cc2)CCS3(=O)=O)cc1OCC — higher, 159 to 160 °C
- COc1ccc(CNc2nnc(NCCCO)c3ccc(Cl)cc23)cc1Cl — lower, 131 to 138 °C
- CN1C(=O)c2cnc(-c3ccccc3)nc2N(C(=O)CN2CCN(Cc3ccccc3)CC2)c2ccccc21 — higher, 194 °C
- COc1cccc(N2C(=O)C3(CCCCO3)C(=O)c3cccnc32)c1 (configuration not stated) — higher, 233 to 236 °C
- C=C(C)C(=O)Nc1cccc(OC(=O)Nc2ccccc2)c1 — higher, 177 to 178 °C
- CC(C)C(C#N)Nc1ccc(C(F)(F)F)cc1 (configuration not stated) — lower, 64.5 to 67 °C
- O=C1CCC2=C1C(c1ccc(Cl)c(F)c1)C1=C(CCS1)N2 (configuration not stated) — higher, > 260 °C
- COc1ccc(-c2sc(N)c(C(=O)c3ccc(Cl)cc3)c2CN(C2CCCCC2)C2CCCCC2)cc1 — higher, 178 to 182 °C
- COc1ccc2c(CC(=O)O)c(C(=O)c3ccc(Cl)cc3)[nH]c2c1 — higher, 193 °C
- O=C1c2cc(OC(F)F)ccc2CN1c1ccc2c(c1)CCC2 — lower, 137 to 139 °C
- COc1ccccc1NC(=O)Nc1nc(N2CCCCC2)nc(N(CCC(=O)O)Cc2ccc(Cl)c(Cl)c2)n1 — lower, 111 to 115 °C
- CCCCCCCCCCCC(=O)NC(C)c1c[nH]c(CCCCCCCCCCC)n1 (configuration not stated) — lower, 56 to 59 °C
- O=C1CCCC12CCOc1ccc(F)cc12 (configuration not stated) — lower, 49 to 51 °C
- O=C(NC1(C2CC2)CC1)c1c(NC(=O)c2cc(C(F)(F)F)nn2-c2ncccc2Cl)ccc2cn[nH]c12 — higher, 224 to 227 °C
- O=C(O)c1cc(Cl)cc(Cl)c1[N+](=O)[O-] — higher, 190 to 192 °C
- O=[N+]([O-])Nc1ccnc(Cl)c1 — higher, 163 to 164 °C
- COc1ccc(C(=O)c2ccc(F)cc2)c(F)c1 — lower, 89.7 to 90.1 °C
- COc1cc(CO)cc2c(Br)ccc(OC(C)C)c12 — lower, 120 to 121 °C
- CCC(CC)C(=O)Nc1ccc2ncn3c(=O)c(C(=O)O)cnc3c2c1 — higher, 295 to 298 °C
- CC(C)(C)OC(=O)NCC1(Cc2noc(=S)[nH]2)CCCCC1 — higher, 160 to 161 °C
- COc1ccc(C(Cc2cnccn2)c2ccccc2)cc1OC1CCCC1 (configuration not stated) — lower, 71.5 to 72 °C
- CC(C)(C)C(COC(N)=O)(NC(=O)C(=O)c1c[nH]c2ccc(Br)cc12)c1c[nH]c2ccc(Br)cc12 (configuration not stated) — higher, 207 °C
- CCCCOc1cc(/C=C/C(=O)O)n(Cc2ccc(C(F)(F)F)cc2)n1 — higher, 153 to 155 °C
- CCOc1nc(NCCN2CCCC2)nc(Nc2ccc(F)c(Cl)c2)n1 — lower, 111 to 113 °C
- COc1ccc2c(c1)c1c(n2C(=O)c2ccccc2)CCC(C(=O)O)C1 (configuration not stated) — higher, 216 to 219 °C
- COc1ccc(C(=O)N2c3ccccc3C(n3c4ccccc4c4ccccc43)CC2COCc2ccccc2)cc1OC (configuration not stated) — higher, 203 to 204 °C
- Cc1oc(-c2ccc(C(F)(F)F)cc2)cc1COc1cccc(C=O)c1 — lower, 85 to 86 °C
- O=c1cc(-c2ccc(Cl)cc2)sc(N2CCOCC2)c1 — higher, 202 to 204 °C
- O=C1CCc2cc(Cl)cc(Cl)c21 — lower, 119 to 120 °C
- CC(=O)NCC=C1CCc2ccc3nc(C)sc3c21 — higher, 184 to 186 °C
- Cc1ccc(C)c2c1CN(NC(=O)OC(C)(C)C)C2 — not separable, 148 to 151 °C
- CN1CCC(c2nn(-c3ccc(C(F)(F)F)cc3)c3ccc(F)cc23)CC1 — lower, 126 to 128 °C
- CNc1cc2c(cc1OC)OCO2 — lower, 66 °C
- CC(=O)OC(C)c1ccc2occ(-c3nnn[nH]3)c(=O)c2c1 (configuration not stated) — higher, 231 to 232 °C
- COC(=O)c1cc(O)c2cc(N3CCOCC3)ccc2c1 — higher, 231 to 234 °C
- CCCCCCCCCCC(C)(C)C(=O)NC1CCCNC(=O)C1 (configuration not stated) — lower, 41 to 42 °C
- CC(=O)SC(CC(=O)c1ccc(Cl)cc1)C(=O)O (configuration not stated) — lower, 68 to 69 °C
- NC(CC(=O)NC1CC1)C1CC1 (configuration not stated) — lower, 116 to 118 °C
- O=C(O)C1Cc2c([nH]c3ccccc23)CN1C(=S)SC1CCCCC1 (configuration not stated) — not separable, 150 to 151 °C
- CCOC(=O)C1=CCCCC1S(=O)(=O)Nn1cccc1Cl (configuration not stated) — lower, 60 to 61 °C

From a melting point compilation (Tetko et al.; mined from patent text by program, amines drawn as free bases though some values may be those of a salt)
